Test results as given in US10822311B2, “Pyrimidines and variants thereof, and uses therefor” (Afferent Pharmaceuticals Inc., priority 2016, dated 2020).
Like-named read-outs stand apart in the source and are kept apart here.

Columns and labels:
P2X3 [1] = conditions: Table 3B, iodo; from Jahangir et al; cited from earlier work
P2X2/3 = biological target: T1, P2X2/3 (Homo sapiens, UniProt P56373+Q9UBL9); conditions: Table 3B, iodo; from Jahangir et al; cited from earlier work
T1 sequence (P56373 1-397): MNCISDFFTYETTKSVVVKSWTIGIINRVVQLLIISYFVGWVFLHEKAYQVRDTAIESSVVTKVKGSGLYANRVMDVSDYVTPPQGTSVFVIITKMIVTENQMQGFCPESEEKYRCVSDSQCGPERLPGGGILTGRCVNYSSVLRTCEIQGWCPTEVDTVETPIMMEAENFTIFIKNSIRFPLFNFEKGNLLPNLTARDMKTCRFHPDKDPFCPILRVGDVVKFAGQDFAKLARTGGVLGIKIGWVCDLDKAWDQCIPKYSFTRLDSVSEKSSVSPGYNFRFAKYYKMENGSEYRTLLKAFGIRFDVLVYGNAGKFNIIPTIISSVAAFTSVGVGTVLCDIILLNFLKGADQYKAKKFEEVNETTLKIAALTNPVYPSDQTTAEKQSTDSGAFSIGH
T1 sequence (Q9UBL9 1-471): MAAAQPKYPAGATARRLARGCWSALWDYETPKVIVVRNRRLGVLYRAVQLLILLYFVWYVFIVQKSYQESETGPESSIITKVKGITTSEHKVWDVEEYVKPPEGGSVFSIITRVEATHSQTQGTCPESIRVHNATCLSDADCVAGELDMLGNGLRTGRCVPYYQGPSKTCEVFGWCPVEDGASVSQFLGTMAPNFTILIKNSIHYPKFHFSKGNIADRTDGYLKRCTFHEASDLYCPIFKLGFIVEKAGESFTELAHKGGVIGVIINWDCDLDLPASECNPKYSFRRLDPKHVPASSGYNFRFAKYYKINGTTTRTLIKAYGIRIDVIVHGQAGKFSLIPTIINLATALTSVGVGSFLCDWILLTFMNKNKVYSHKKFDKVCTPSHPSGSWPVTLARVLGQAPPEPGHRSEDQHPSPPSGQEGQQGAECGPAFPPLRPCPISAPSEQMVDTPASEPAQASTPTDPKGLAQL

P2X3 [2] = assay: Mean pIC50s from Jahangir et al, P2X3; format: cell-based; conditions: Table 3B, iodo; ratio from the Jahangir et al pIC50s
P2X3 [3] = conditions: Table 3A, oxygen-linked; from Carter et al; cited from earlier work
P2X3 [4] = assay: Mean pIC50s from Carter et al, P2X3; format: cell-based
[5] = biological target: T2, human P2X3 receptor (homomeric P2X3 channels) (Homo sapiens, UniProt P56373); assay: FlexStation calcium fluorescence assay, homomeric P2X3 channels in HEK293 cells; format: cell-based; conditions: for Selectivity P2X3/P2X2/3: Ratio=10^(P2X3pIC50−P2X2/3pIC50); for Selectivity, R = OMe / P2X3 mean pIC50, R = OMe: Table 3B; for Selectivity, R = OMe: P2X3 vs P2X2/3 potency ratio; for P2X3 mean pIC50, R = OMe: Table 2
T2 construct: expressed in transfected cells; host or cells: HEK293 human embryonic kidney cells (HEK-hP2X3)
T2 sequence (P56373 1-397): T1 sequence (P56373 1-397)
Protocol: (§1) 1321N1 human astrocytoma and HEK293 human embryonic kidney cells were stably transfected with human P2X2 and P2X3 receptor subunits to form heteromeric P2X2/3 channels and passaged in flasks. Additionally, HEK293 cells were stably transfected with human P2X3 receptor subunits to form homomeric P2X3 channels.
(§2) Approximately 24 hours before the FlexStation calcium fluorescence experiment, cells were released from their flasks, centrifuged and re-suspended in nutrient medium. The cells were aliquoted into black-wall, clear-bottom 96 well plates at a density of 25,000 cells per well and incubated overnight in a humidified, CO2-enriched (5%) atmosphere at 37° C.
(§3) On the day of the experiment, cells were washed with assay buffer (calcium- and magnesium-free Hank's balanced salt solution, 20 mM HEPES, 2 mM CaCl2; AB) and loaded with 4 μM Fluo-4 (P2X2/3) or Calcium 6 (Molecular Devices, according to manufacturer's instructions; P2X3) calcium-sensitive fluorescent dye in 100 μL AB.
(§4) After 1 hour of dye loading at 37° C., 1321N1-hP2X2/3 cells were washed two times with AB and test compound or vehicle added to each well in a total volume of 150 μL AB. HEK-hP2X3 cells were not washed because the Calcium 6 dye kit includes an extracellular dye that quenches unabsorbed Calcium 6 dye; test compound or vehicle were added directly to the assay plates to achieve the appropriate concentration of test compound in a total volume of 150 μL AB.
(§5) After 20 minutes incubation at room temperature and protected from light, the assay plates were loaded into the FlexStation microplate reader and baseline fluorescence measured with an excitation wavelength of 485 nm and emission wavelength readings centered at 525 nm (515 nm cut off).
(§6) The agonist was dispensed by the FlexStation during fluorescence measurement to construct agonist activation and antagonist inhibition curves. The final agonist concentration for inhibition was 1 μM α,β-meATP for P2X3 and 3 μM ATP for P2X2/3. Peak fluorescence was measured and curves generated using a four parameter nonlinear regression equation.

[6] = biological target: T3, human P2X2/3 (heteromeric P2X2/3 channels) (Homo sapiens, UniProt P56373+Q9UBL9); assay: FlexStation calcium fluorescence assay, heteromeric P2X2/3 channels in 1321N1 cells; format: cell-based; conditions: for P2X2/3 mean pIC50, R = OMe: Table 3B, Table 2
T3 construct: expressed in transfected cells; host or cells: 1321N1 human astrocytoma cells (1321N1-hP2X2/3)
T3 sequence (P56373 1-397): T1 sequence (P56373 1-397)
T3 sequence (Q9UBL9 1-471): T1 sequence (Q9UBL9 1-471)
Protocol: as §1, §2, §3, §4, §5, §6

[7] = HEK293 cells, hP2X3, agonist 1 μM α,β-meATP, read-out: Average pIC50 P2X3 (converted)
[8] = 1321N1 cells, hP2X2/3, agonist 3 μM ATP, highest concentration tested is 10 μM, read-out: Average pIC50 P2X2/3 (converted)
[9] = Table 3A, sulfur-linked, hP2X3, HEK293 cells
[10] = Table 3A, sulfur-linked, hP2X2/3, 1321N1 (astrocytoma) cells, highest concentration tested is 10 μM
[11] = hP2X2/3, 1321N1 (astrocytoma) cells

IC50 [5, 7] [nM] | IC50 [6, 8] [nM] | Selectivity P2X3/P2X2/3 [5] | SMILES | other results
794 | 1260 | 1.6 | COc1cc(Oc2cnc(N)nc2NC2CC2)c(C(C)C)cc1OC [Compound 32] | –
1000 | > 10000 | >10 | COCCNc1nc(N)ncc1Oc1cc(OC)c(OC)cc1C(C)C [Compound 36] | –
49 | 1380 | – | COc1cc(Nc2cnc(N)nc2N)c(C(C)C)cc1OC [Compound 47] | –
398 | 3160 | 9.3 | CCNc1ncc(Oc2cc(OC)c(OC)cc2C(C)C)c(N)n1 [Compound 29] | –
200 | 3980 | 21 | COc1cc(Oc2cnc(NCC(O)CO)nc2N)c(C(C)C)cc1OC (stereo not shown) [Compound 31] | Selectivity, R = OMe [5]: 20; P2X3 mean pIC50, R = OMe ([5]; hP2X3, HEK293 cells): 6.7; P2X2/3 mean pIC50, R = OMe [6, 11]: 5.4
1000 | > 10000 | >10 | COc1cc(Oc2cnc(N)nc2Nc2cnccn2)c(C(C)C)cc1OC [Compound 44] | –
126 | 631 | 4.9 | COc1cc(Oc2cnc(NC(CO)CO)nc2N)c(C(C)C)cc1OC [Compound 30] | Selectivity, R = OMe [5]: 5.0; P2X3 mean pIC50, R = OMe ([5]; hP2X3, HEK293 cells): 6.9; P2X2/3 mean pIC50, R = OMe [6, 11]: 6.2
3160 | > 10000 | 3.5 | COc1cc(Oc2cnc(N)nc2Nc2cccnn2)c(C(C)C)cc1OC [Compound 45] | –
1580 | > 10000 | >6.4 | CNc1nc(N)ncc1Oc1cc(OC)c(OC)cc1C(C)C [Compound 34] | –
398 | 1260 | 3.2 | COc1cc(Oc2cnc(NC3CCOCC3)nc2N)c(C(C)C)cc1OC [Compound 28] | –
200 | 501 | 2.5 | COc1cc(Oc2cnc(NC3CCC3)nc2N)c(C(C)C)cc1OC [Compound 27] | –

Second part, the compound before the results:

SMILES | IC50 [5, 7] [nM] | IC50 [6, 8] [nM] | Selectivity P2X3/P2X2/3 [5] | other results
COc1cc(C(C)C)c(Oc2cnc(N)nc2NC(CO)CO)cc1I [Row C, R = I] | – | – | – | P2X3 mean pIC50, R = I (P2X3 [1]): 8.7; P2X2/3 mean pIC50, R = I (P2X2/3): 8.3; Selectivity, R = I (P2X3 [2]): 2.5
COc1cc(Oc2cnc(N)nc2N)c(C(C)C)cc1OC [Row A, X = O] | – | – | – | P2X3 mean pIC50, X = O (P2X3 [3]): 7.6
COc1cc(C(C)C)c(Oc2cnc(N)nc2N)cc1S(C)(=O)=O [Row C, X = O] | – | – | – | P2X3 mean pIC50, X = O (P2X3 [3]): 7.0; Selectivity, X = O (P2X3 [4]): 10
COc1cc(C(C)C)c(Oc2cnc(N)nc2N)cc1Cl [Row D, X = O] | – | – | – | P2X3 mean pIC50, X = O (P2X3 [3]): 7.6; Selectivity, X = O (P2X3 [4]; Table 3A, oxygen-linked, ratio from the Carter et al pIC50s): 4
COc1cc(C(C)C)c(Oc2cnc(N)nc2NCCO)cc1I [Row A, R = I] | – | – | – | P2X3 mean pIC50, R = I (P2X3 [1]): 8.0; P2X2/3 mean pIC50, R = I (P2X2/3): 7.8; Selectivity, R = I (P2X3 [2]): 1.6
COc1cc(C(C)C)c(Oc2cnc(N)nc2N)cc1I [Row B, X = O] | – | – | – | P2X3 mean pIC50, X = O (P2X3 [3]): 8.0; Selectivity, X = O (P2X3 [4]): 8
C#Cc1cc(Oc2cnc(N)nc2N)c(C(C)C)nc1OC [Compound 19] | 6.31 | 200 | – | –
COc1cc(C(C)C)c(Sc2cnc(N)nc2N)cc1S(C)(=O)=O [Compound 2] | 501 | > 10000 | – | P2X3 mean pIC50, X = S [5, 9]: 6.3; P2X2/3 mean pIC50, X = S [6, 10]: <5
CC#Cc1cc(Sc2cnc(N)nc2N)c(C(C)C)cc1OC [Compound 6] | 794 | > 10000 | – | –
COc1cc(C(C)C)c(Oc2cnc(N)nc2NCC(O)CO)cc1I (stereo not shown) [Row B, R = I] | – | – | – | P2X3 mean pIC50, R = I (P2X3 [1]): 8.1; P2X2/3 mean pIC50, R = I (P2X2/3): 7.5; Selectivity, R = I (P2X3 [2]): 4.0
COc1nc(C(C)C)c(Oc2cnc(N)nc2N)cc1C#N [Compound 17] | 1000 | > 10000 | – | –
COc1cc(Sc2cnc(N)nc2N)c(C(C)C)cc1OC [Compound 1] | – | – | – | Average pIC50 P2X3 ([5]; HEK293 cells, hP2X3, agonist 1 μM α,β-meATP): 7.0; P2X3 mean pIC50, X = S ([5]; Table 3A, sulfur-linked, hP2X3, HEK293 cells, listed as Row A, X = S): 7.0; IC50 ([5]; Table 3A, sulfur-linked, hP2X3, HEK293 cells, read-out: P2X3 mean pIC50, X = S (converted)): 100 nM; Average pIC50 P2X2/3 ([6]; 1321N1 cells, hP2X2/3, agonist 3 μM ATP, highest concentration tested is 10 μM): <5; P2X2/3 mean pIC50, X = S ([6]; Table 3A, sulfur-linked, hP2X2/3, 1321N1 (astrocytoma) cells, highest concentration tested is 10 μM, listed as Row A, X = S): <5; IC50 ([6]; Table 3A, sulfur-linked, hP2X2/3, 1321N1 (astrocytoma) cells, highest concentration tested is 10 μM, read-out: P2X2/3 mean pIC50, X = S (converted)): > 10000 nM
COc1cc(Oc2cnc(NC(CCO)CCO)nc2N)c(C(C)C)cc1OC [Compound 21] | 79.4 | 398 | 5.0 | –
COc1cc(Oc2cnc(NCC(C)C)nc2N)c(C(C)C)cc1OC [Compound 25] | 631 | 2510 | 4.3 | –
COc1cc(C(C)C)c(Sc2cnc(N)nc2N)cc1Cl [Compound 9] | 158 | > 10000 | – | P2X3 mean pIC50, X = S [5, 9]: 6.8; P2X2/3 mean pIC50, X = S [6, 10]: <5
COc1cc(C(C)C)c(Sc2cnc(N)nc2N)cc1C#N [Compound 10] | > 10000 | > 10000 | – | –
COc1cc(Oc2cnc(NC3CC3)nc2N)c(C(C)C)cc1OC [Compound 26] | 631 | 3160 | 5.4 | –
